Experimental data published in EP0377127B1, “Use of Myricetin-3-O-beta-D glucuronide as medicament” (Plantamed Arzneimittel GmbH, priority 1989, dated 1990).
Read-outs that look alike come from different tables or passages of the source.

Tests used:
[1] = test system: Carrageenin-induzierte Rattenpfotenödem; assay: Carrageenin-induced rat paw oedema (acute inflammation model); type: in vivo, Ratte
Experimental: Zur Prüfung der entzündungshemmenden Wirkung dieser Substanz wird das Modell des Carrageenin-induzierten Rattenpfotenödems herangezogen, ein allgemein anerkanntes Modell zur Ermittlung anhand einer akuten Entzündung. Die entzündungshemmende Wirkung von vakuumgetrockneten und lyophilisierten Extrakten ist in Abb. 1 wiedergegeben. Bei der Anwendung von vakuumgetrocknetem Blattextrakt von Epilobium angustifolium wurde eine Dosis von 72 mg/kg Ratte, für sprühgetrockneten Blattextrakt eine Dosis von 136,47 mg/kg Ratte und für lyophilisierten Blattextrakt eine Dosis von 16,4 mg/kg Ratte eingesetzt. Das Ausmaß der entzündungswirkenden von vakuumgetrockneten und lyophilisierten Extrakten der in Abbildung 1 aufgezeigten Konzentrationen entspricht ca. 1 bis 2 mg Indometacin/kg Ratte.
Der Einfluß auf das Carrageenin-induzierte Rattenpfotenödem geht aus den Kurven in den Abbildungen 2 und 3 hervor. Abbildung 2 stellt unterschiedliche Dosen von HIMAK einander gegenüber, Abb. 3 dient dem Vergleich von HIMAK einer bestimmten Dosis mit einem wässrigen Auszug von Epilobium und Indometacin. Der Darstellung des Einflusses der erfindungsgemäßen Substanz auf die Prostaglandin-Biosynthese am pharmakologischen Modell nach ISAKSON, modifiziert nach JUAN und SAMETZ am perfundierten Kaninchenohr sowie mittels Radioimmunoassay (RIA) dienen die Abbildungen 4 und 5.

PG-Biosynthese = assay: Prostaglandin biosynthesis in the perfused rabbit ear (labelled arachidonic acid, metabolites separated by TLC; RIA); type: cell-based, Kaninchen; conditions: for inhibition at 1 µg/mL: Oryctolagus cuniculus, read-out: hemmen die Biosynthese von PGI₂ und PGE₂
Source text: Methode: Perfundiertes Kaninchenohr mit C-Arachidonsäure, Vormarkierung und Messung der radioaktiven Metalboliten mittels Auftrennung durch DC. • 2.

Magenschleimhaut = assay: Preliminary examination of gastric mucosa damage after peroral dosing; type: in vivo; conditions: 1 mg/kg, preliminary examinations
Source text: Es ist gesicherte Erkenntnis, daß Cyclooxygenase-Hemmer, also Hemmer der Biosynthese von Prostaglandinen, wie etwa Indo, die Magenschleimhaut schädigen können. […] Im Ergebnis liefern diese Untersuchungen einen Hinweis auf die wesentlich günstiger zu beurteilende Frage der Toxizität von HIMAK.

Row | SMILES | Dosisbereich, der das Carrageenin-Pfotenödem ähnlich stark reduziert wie 1 mg/kg Indomethacin (p.o.) ([1]; compared with 1 mg/kg Indomethacin p.o.) | Hemmung der experimentellen akuten Entzündung (Rattenpfotenödem mit Carrageenin) (in words) ([1]; dose-dependent) | Wirksamkeit im Vergleich mit der Referenzsubstanz Indo auf Gewichtsbasis (in words) ([1]; first experiments, weight basis) | so wirksam wie Indo, auf geschätzter Molekulargewichtsbasis ([1]; potency relative to Indo, estimated molecular weight basis) [mal] | so wirksam wie Indo, auf Gewichtsbasis ([1]; potency relative to Indo, weight basis) [mal] | inhibition at 1 µg/mL (PG-Biosynthese; 1 »g/ml (Endkonzentration) Indo, ca. 1 »g/ml HIMAK, perfused rabbit ear) [%] | Hemmung der Biosynthese von Prostaglandinen (in words) (PG-Biosynthese; dose-dependent) | Hemmung der PG-Biosynthese im Vergleich mit Indo (in words) (PG-Biosynthese; weight basis, similar concentration as Indo (Abb. 4)) | Bildung kleiner Erosionen in der Magenschleimhaut (Magenschleimhaut) | inhibition at 1 µg/mL (PG-Biosynthese) [%]
1 | O=C(O)[C@H]1O[C@@H](Oc2c(-c3cc(O)c(O)c(O)c3)oc3cc(O)cc(O)c3c2=O)[C@H](O)[C@@H](O)[C@@H]1O [HIMAK, Myricetin-3-0-β-D-glucuronid] | 40 - 200 »g/kg KG | deutlich hemmen | wesentlich wirksamer | ~5 | ≥ 10 | > 80 | deutlich hemmen | in etwa gleichem Ausmaß gehemmt | nicht der Fall | 
2 | COc1ccc2c(c1)c(CC(=O)O)c(C)n2C(=O)c1ccc(Cl)cc1 [Indo, Indometacin, reference compound] |  |  |  |  |  |  |  |  | Bildung kleiner Erosionen in der Magenschleimhaut | > 80
